Reference: patent US9370503B1, “Compounds for treating ocular diseases” (priority 2015, dated 2016)

How the values were obtained:
[1] = tested on: HUVECs; test: t-BHP-induced injury in HUVECs (MTT); assay type: cell-based, human; conditions: 12 hours
Procedure: (§1) ARPE-19 cells were grown in DMEM/F12 medium supplemented with 10% FBS, 100 units/ml penicillin G, and 100 μg/ml streptomycin sulfate. HUVECs were grown in vascular cell basal medium supplemented with endothelial cell growth kit. Cells were incubated in a humidified incubator at 37° C. under 5% CO2 and 95% air.
(§2) MTT assay was used to measure the viability of ARPE-19 cells and HUVECs. 2×10^5 ARPE-19 cells or 5×10^4 HUVECs were seeded in 96-well plates (100 μl/well) and allowed to grow overnight. Negative control was prepared by adding 100 μl medium without cells. The cells were then treated with fresh medium with a compound of Formula (II) (“(II)”) (0.03, 0.1, 0.3, 1, 3 and 10 μg/ml) and/or oxidants (NaIO3, H2O2, t-BHP and NaN3) for 12, 24, or 72 hours (200 μl/well). The vehicle control group was treated with vehicle. 20 μl MTT (5 mg/ml) was added to wells, and incubated for another 4 h. After incubation, the medium was discarded and 100 μl DMSO was added to solubilize formazan produced from MTT by the viable cells. Absorbance was measured at 570 nm using a microplate reader (Bio-Rad Laboratories, Inc., CA). Cells viability was calculated according to the following formula: Viability of cells (%)=(absorbance in tested sample−absorbance in negative control)/(absorbance in vehicle control−absorbance in negative control)×100%.

[2] = tested on: ARPE-19 cells; test: Hypoxia-induced damage in ARPE-19 cells (MTT); assay type: cell-based, human; conditions: hypoxia 1% O2, 72 h
Procedure: as §1
MTT assay was used to measure the viability of ARPE-19 cells and HUVECs. 2×10^5 ARPE-19 cells or 5×10^4 HUVECs were seeded in 96-well plates (100 μl/well) and allowed to grow overnight. Negative control was prepared by adding 100 μl medium without cells. The cells were then treated with fresh medium with a compound of Formula (II) (“(II)”) (0.03, 0.1, 0.3, 1, 3 and 10 μg/ml) and/or oxidants (NaIO3, H2O2, t-BHP and NaN3) for 12, 24, or 72 hours (200 μl/well). The vehicle control group was treated with vehicle. 20 μl MTT (5 mg/ml) was added to wells, and incubated for another 4 h. After incubation, the medium was discarded and 100 μl DMSO was added to solubilize formazan produced from MTT by the viable cells. Absorbance was measured at 570 nm using a microplate reader (Bio-Rad Laboratories, Inc., CA). Cells viability was calculated according to the following formula: Viability of cells (%)=(absorbance in tested sample−absorbance in negative control)/(absorbance in vehicle control−absorbance in negative control)×100%. […]

[3] = Hypoxia-induced damage in HUVECs (MTT); assay type: cell-based, human; conditions: human, HUVECs, 10 μg/ml, P<0.01, read-out: decrease of viability of HUVECs in hypoxic condition
Procedure: as §1, §2
(§3) Cells were allowed to attach overnight, and then exposed to (II) or vehicle under hypoxic condition for 72 h. Hypoxic conditions (1% O2, 5% CO2 and 94% N2) were maintained by using a temperature and humidity controlled environmental C-chamber by O2 and CO2 controllers (Proox Model 110 and Pro CO2 Model 120, Bio Spherix Ltd., Redfield, N.Y., USA) with N2 and CO2 gas sources.

[4] = tested on: HUVECs; test: Hypoxia-induced damage in HUVECs (MTT); assay type: cell-based, human; conditions: 72 h
Procedure: as §1, §2, §3

[5] = tested on: Ocular Hypertensive Rabbit; test: Ocular blood flow in ocular hypertensive rabbit (colored microspheres); assay type: in vivo; conditions: 1% topical instillation, 30 minutes after drug instillation
Procedure: 0.5% alcaine was purchased commercially. A 20% sterilized hypertonic saline solution was prepared in the laboratory. Colored microspheres were purchased from E-Z Trac (Los Angeles, Calif.). The colored microspheres were diluted with saline containing 0.01% (v/v) of Tween 80 to prevent the microspheres from sticking together. Two million microspheres in 0.4 ml were injected at each time point.
Female New Zealand white rabbits weighing 2.-3.0 kg, were purchased commercially. Animal care and treatment were followed by the institutional guidelines.
Rabbits were anesthetized with 35 mg/kg ketamine and 5 mg/kg xylazine by intramuscular injection. Half of the initial dose was given every one hour thereafter. The left ventricle was cannulated through the right carotid artery for injection of colored microspheres and the femoral artery was cannulated for collection of blood samples. The left eye was treated with one drop of proparacaine hydrochloride ophthalmic solution (Bausch & Lomb, Inc., Tampa, Fla., USA). The needle was inserted directly into the anterior chamber of the left eye, which was connected to the 40 mmHg saline manometer. The ocular hypertensive model reduced the ocular blood flow to approximately one third of the normal valued. 50 μl of 10 g/l flavone or vehicle (30% HP-β-CD solution) was instilled topically to the left eye 30 minutes after the ocular hypertensive model was built. The ocular blood flow was measured by colored microspheres at 0, 30, 60 and 120 minutes after treatment with the compounds or vehicle. At each time point, 2 million microspheres were injected as a reference, and blood samples were taken from the femoral artery for exactly one minute following injection of the microspheres. The blood sample was collected in a heparinized tube and the volume was recorded. The rabbits were euthanized with an injection of 100 mg/kg pentobarbital sodium after the last blood sampling. The left eyes were enucleated and dissected into the iris, ciliary body, retina and choroid. All the tissues were weighed.
The details of sample processing and microsphere counting were provided by E-Z Trac (Los Angeles, Calif., USA). In brief, the blood hemolysis reagent was added to the microfuge tubes with the blood sample, then vortexed and centrifuged for 30 minutes at 6000 rpm. The supernatant was removed, and then tissue/blood digest reagents I and II were added. The tubes were capped, vortexed, and centrifuged for 30 minutes. […] The number of microspheres was counted by the hemocytometer under the microscope. […] The protocol thereafter was the same as that used to process the blood samples, and the microspheres were counted.
The blood flow of each tissue at a certain time point was calculated according to the following formula: Qm=(Cm×Qr)/Cr. […]

[6] = tested on: ARPE-19 cells; test: NaIO3-induced injury in ARPE-19 cells (MTT); assay type: cell-based, human; conditions: 72 h
Procedure: as §1, §2

CC(C)=CCC/C(C)=C/Cc1c([C@@H]2CC(=O)c3c(cc(O)c(CC=C(C)C)c3O)O2)ccc(O)c1O [Formula (II)]
enhancement of t-BHP-induced injury in HUVECs ([1]; 50 μM t-BHP, 3 μg/ml compound): 27%
enhancement of t-BHP-induced injury in HUVECs ([1]; 50 μM t-BHP, 10 μg/ml compound): 71%
enhancement of t-BHP-induced injury in HUVECs ([1]; 100 μM t-BHP, 3 μg/ml compound): 21%
enhancement of t-BHP-induced injury in HUVECs ([1]; 100 μM t-BHP, 10 μg/ml compound): 80%
enhancement of t-BHP-induced injury in HUVECs ([1]; 200 μM t-BHP, 10 μg/ml compound): 76%
effect on viability of ARPE-19 cells in hypoxic condition ([2]; 0.03 μg/ml to 3 μg/ml): no effect
reversal of injury induced by hypoxia in ARPE-19 cells ([2]; 10 μg/ml): 24%
cytotoxicity at 72 h, 10 μg/ml [3]: 97%
increase of viability of HUVECs in hypoxic condition ([4]; 0.03 μg/ml): 22%
increase of viability of HUVECs in hypoxic condition ([4]; 0.1 μg/ml): 19%
increase of viability of HUVECs in hypoxic condition ([4]; 0.3 μg/ml): 26%
blood flow in choroid [5]: significantly increased
blood flow in iris [5]: significantly increased
effect on viability in NaIO3-induced injury in ARPE-19 cells ([6]; 30 μg/ml NaIO3, 0.03, 1, 3 and 10 μg/ml compound, P<0.05): significantly reversed
reversal of viability in NaIO3-induced injury in ARPE-19 cells ([6]; 100 μg/ml NaIO3, 10 μg/ml compound): 24%
reversal of viability in NaIO3-induced injury in ARPE-19 cells ([6]; 300 μg/ml NaIO3, 3 μg/ml compound): 7%
